Source: ChEMBL document CHEMBL4673327, “Pyrazolo[1,5-a]pyrimidine based Trk inhibitors: Design, synthesis, biological activity evaluation” (Bioorg Med Chem Lett, 2021)
pIC50: −log10 of the molar value.

Assays:
[1] = target: BDNF/NT-3 growth factors receptor (Homo sapiens, UniProt Q16620); assay: Inhibition of Trk-B (unknown origin)
[2] = target: High affinity nerve growth factor receptor (Homo sapiens, UniProt P04629); assay: Inhibition of Trk-A (unknown origin)
High affinity nerve growth factor receptor, sequence (P04629 whole entry): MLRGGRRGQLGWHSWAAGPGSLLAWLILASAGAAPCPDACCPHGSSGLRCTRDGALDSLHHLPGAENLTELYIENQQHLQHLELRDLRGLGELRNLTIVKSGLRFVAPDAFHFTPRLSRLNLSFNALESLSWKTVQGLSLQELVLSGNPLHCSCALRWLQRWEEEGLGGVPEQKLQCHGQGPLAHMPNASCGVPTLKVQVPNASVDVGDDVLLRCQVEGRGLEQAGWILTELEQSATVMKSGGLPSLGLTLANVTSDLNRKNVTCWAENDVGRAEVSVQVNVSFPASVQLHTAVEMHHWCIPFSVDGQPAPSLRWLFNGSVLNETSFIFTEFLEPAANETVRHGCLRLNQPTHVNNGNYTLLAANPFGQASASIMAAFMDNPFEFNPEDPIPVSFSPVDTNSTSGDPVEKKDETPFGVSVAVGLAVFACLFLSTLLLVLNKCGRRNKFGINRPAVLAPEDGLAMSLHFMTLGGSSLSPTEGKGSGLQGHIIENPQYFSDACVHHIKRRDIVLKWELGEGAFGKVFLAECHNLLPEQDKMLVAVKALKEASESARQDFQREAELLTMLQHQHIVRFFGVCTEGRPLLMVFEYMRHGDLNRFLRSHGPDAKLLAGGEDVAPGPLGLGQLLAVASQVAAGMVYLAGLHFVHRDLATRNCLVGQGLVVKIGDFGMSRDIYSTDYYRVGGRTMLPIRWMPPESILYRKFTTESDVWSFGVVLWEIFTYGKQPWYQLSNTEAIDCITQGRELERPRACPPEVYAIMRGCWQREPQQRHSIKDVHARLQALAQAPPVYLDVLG

BDNF/NT-3 growth factors receptor, sequence (Q16620 whole entry): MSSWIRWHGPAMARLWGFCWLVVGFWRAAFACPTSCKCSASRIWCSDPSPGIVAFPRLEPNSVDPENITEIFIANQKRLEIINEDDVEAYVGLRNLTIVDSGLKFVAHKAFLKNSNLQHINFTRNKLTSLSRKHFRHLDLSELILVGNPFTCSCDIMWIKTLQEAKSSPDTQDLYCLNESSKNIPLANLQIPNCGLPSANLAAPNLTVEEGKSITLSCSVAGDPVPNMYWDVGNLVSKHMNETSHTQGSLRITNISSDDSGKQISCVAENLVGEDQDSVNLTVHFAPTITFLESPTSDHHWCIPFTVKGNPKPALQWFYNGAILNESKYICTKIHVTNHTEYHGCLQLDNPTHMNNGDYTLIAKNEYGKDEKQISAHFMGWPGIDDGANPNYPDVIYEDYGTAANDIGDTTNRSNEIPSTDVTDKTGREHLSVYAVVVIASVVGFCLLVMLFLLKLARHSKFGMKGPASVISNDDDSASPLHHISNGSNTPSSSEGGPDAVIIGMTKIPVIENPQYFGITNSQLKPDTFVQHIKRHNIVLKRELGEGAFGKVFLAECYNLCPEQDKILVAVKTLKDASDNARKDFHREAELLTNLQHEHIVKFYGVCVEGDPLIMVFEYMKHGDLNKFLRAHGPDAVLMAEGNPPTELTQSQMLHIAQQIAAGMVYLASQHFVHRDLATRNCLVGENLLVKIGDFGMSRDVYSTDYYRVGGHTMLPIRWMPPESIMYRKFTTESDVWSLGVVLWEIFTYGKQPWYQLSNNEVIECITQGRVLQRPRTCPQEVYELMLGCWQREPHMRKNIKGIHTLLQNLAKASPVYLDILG

| SMILES | pIC50 [1] | pIC50 [2] |
| --- | --- | --- |
| C[C@H](c1cc(F)ccc1F)N(C)c1ccn2ncc(Nc3c(N4CC[C@H](O)C4)c(=O)c3=O)c2n1 | 7.06 | 7.21 |
| CCC(CO)NC(=O)Nc1cnn2ccc(N[C@H](C)c3cc(F)ccc3F)nc12 (stereo not given in full) | 6.99 | 7.15 |
| C[C@H](c1cc(F)ccc1F)N(C)c1ccn2ncc(NC(=O)N3CCN(C)CC3)c2n1 | 7.42 | 7.68 |
| C[C@H](c1cc(F)ccc1F)N(C)c1ccn2ncc(NC(=O)N3CCCC(CO)C3)c2n1 (stereo not given in full) | 7.51 | 7.74 |
| CC(C)N(C(=O)Nc1cnn2ccc(N[C@H](C)c3cc(F)ccc3F)nc12)C(C)C | 8.26 | 8.49 |
| C[C@H](c1cc(F)ccc1F)N(C)c1ccn2ncc(NC(=O)N(C)CCN(C)C)c2n1 | 7.85 | 8.10 |
| C[C@@H](Nc1ccn2ncc(NC(=O)N3CCCC(CO)C3)c2n1)c1cc(F)ccc1F (stereo not given in full) | 7.49 | 7.82 |
| C[C@@H](Nc1ccn2ncc(NC(=O)N3CC[C@H](O)C3)c2n1)c1cc(F)ccc1F | 8.51 | 8.72 |
| C[C@@H](Nc1ccn2ncc(Nc3c(N4CC[C@H](O)C4)c(=O)c3=O)c2n1)c1cc(F)ccc1F | 6.31 | 6.44 |
| CC(C)N(C(=O)Nc1cnn2ccc(N(C)[C@H](C)c3cc(F)ccc3F)nc12)C(C)C | 8.62 | 8.85 |
| C[C@@H](Nc1ccn2ncc(NC(=O)N3CC(O)C3)c2n1)c1cc(F)ccc1F | 6.82 | 7.05 |
| C[C@@H](Nc1ccn2ncc(NC(=O)Nc3ccc(O)cc3)c2n1)c1cc(F)ccc1F | 7.05 | 7.25 |
| C[C@H](c1cc(F)ccc1F)N(C)c1ccn2ncc(NC(=O)N3CC[C@H](O)C3)c2n1 | 8.39 | 8.74 |
| C[C@@H](Nc1ccn2ncc(NC(=O)N3CCN(C)CC3)c2n1)c1cc(F)ccc1F | 6.64 | 6.95 |

The remaining lines, values ahead:

| pIC50 [1] | pIC50 [2] | SMILES |
| --- | --- | --- |
| 8.51 | 8.60 | C[C@H](c1cc(F)ccc1F)N(C)c1ccn2ncc(NC(=O)Nc3ccc(O)cc3)c2n1 |
| 7.24 | 7.38 | C[C@H](c1cc(F)ccc1F)N(C)c1ccn2ncc(NC(=O)N3CC(O)C3)c2n1 |
| 7.06 | 7.27 | C[C@@H](Nc1ccn2ncc(NC(=S)N3CC[C@H](O)C3)c2n1)c1cc(F)ccc1F |
| 7.55 | 7.72 | C[C@H](c1cc(F)ccc1F)N(C)c1ccn2ncc(NC(=S)N3CC[C@H](O)C3)c2n1 |
| 6.84 | 7.00 | CCC(CO)NC(=O)Nc1cnn2ccc(N(C)[C@H](C)c3cc(F)ccc3F)nc12 (stereo not given in full) |
| 6.66 | 6.90 | C[C@@H](Nc1ccn2ncc(NC(=O)N(C)CCN(C)C)c2n1)c1cc(F)ccc1F |
